The text below walks through data of article PMC8224038, “Anti-Leukemic Properties of Aplysinopsin Derivative EE-84 Alone and Combined to BH3 Mimetic A-1210477” (Marine Drugs, 2021).

Read-outs that look alike come from different tables or passages of the source.

Data set [1] relates to K562IR cells. Kind of data set: Trypan blue exclusion test, viability. In kind it is cell-based. The note with it: Homo sapiens, A-1210477 20 µM, 24 h. The protocol:
(§1) Cell proliferation and viability were assessed by the trypan blue exclusion method (Lonza), and viable cells were counted using a hematocytometer (Marienfeld, Lauda-Königshofen, Germany). Differential toxicity was calculated by comparing the viability of RPMI 1788 cells to the viability of cancer cells (normal/cancer cells). The difference in viability was expressed in terms of fold change.

In data set [2] the test system is K562 cells. The experiment in a line: Annexin V APC/PI staining quantified by FACS. In kind it is cell-based, human. In general terms: A flow cytometer gives signals particle by particle.
From the text: (§2) The percentage of apoptotic cells was quantified as the fraction of cells showing fragmented nuclei, as assessed by fluorescence microscopy (Nikon, Tokyo, Japan) after staining with Hoechst 33342 (Sigma-Aldrich) and propidium iodide (Sigma-Aldrich). In addition, apoptosis was confirmed by Annexin V APC (Biolegend, 640919)/propidium iodide (BD Biosciences, 556547) staining and fluorescence-activated cell sorter (FACS) analysis according to the manufacturer protocol (BD Biosciences, 556547).
Data set [3] deals with K562 cells. The experiment in a line: Trypan blue exclusion test, viability. Type of data set: cell-based, human. The note with it: for viability of K562 cells: concentrations up to 50 µM, 24, 48, 72 h. Here is the method:
as §1

Data set [4] has as its system K562 cells. The experiment in a line: Hoechst/PI staining by fluorescent microscopy. Type of data set: cell-based, human. To be noted: K562, 24 h, A-1210477 10 µM alone (Figure 7D).
From the text: as §2
In data set [5] the test system is K562 cells. The experiment in a line: Trypan blue exclusion test, proliferation (GI50). To be noted: concentrations up to 50 µM; 24, 48, 72 h. In kind it is cell-based, human. Here is the method: as §1
The test system of data set [6] is zebrafish embryos. The experiment in a line: Zebrafish toxicity. The note with it: 24 h exposure.
Method: For toxicity assays, embryos were treated with 0.003% phenylthiourea (PTU) 14 h before the assay to remove pigmentation. Then, 2 h before the assay, the embryo’s shell was eliminated and then treated for up to 24 h with aplysinopsin compounds at indicated concentrations in 24-well plates. Viability and abnormal development were assessed after 24 h of treatment under light microscopy (Carl Zeiss Stereomicroscope DV4, Seoul, Korea). Pictures were taken by fixing embryos onto a glass slide with 3% methylcellulose (Sigma-Aldrich).
Data set [7] concerns RPMI 1788. Kind of data set: Trypan blue exclusion test, proliferation (GI50) in noncancerous cells. Type of data set: cell-based, human. The protocol: as §1
The subject of data set [8] is RPMI 1788. Kind of data set: Trypan blue exclusion test, viability (IC50) in noncancerous cells. The note with it: for IC50: read-out: IC50 (50% cell death). Type of data set: cell-based, human. The protocol: as §1
Data set [9] has as its system K562 cells. The experiment in a line: Cell cycle analysis (PI, FACS). Type of data set: cell-based, human. To be noted: Celecoxib 40 μM. The protocol: Cells were collected and fixed in 70% ethanol. DNA was stained with propidium iodide (PI) solution (1 μg/mL, Sigma-Aldrich, St. Louis, MO, USA) in 1XPBS (Biosesang, Seongnam, Korea) for 30 min at 37 °C, supplemented with RNase A (100 μg/mL, Roche, Basel, Switzerland). Samples were analyzed by flow cytometry using the FACSCalibur^TM system, Becton Dickinson (BD) Biosciences (San Jose, CA, USA). Data were recorded statistically (10,000 events/sample) using the Cell Quest software (BD Biosciences) and analyzed using Flow-Jo 8.8.5 software (Tree Star, Inc., Ashland, OR, USA).

Setting [10] is: K562, 24 h, A-1210477 10 μM, with z-VAD-fmk (50 μM).
Setting [11] is: K562, 24 h, Ima 1 μM, with z-VAD-fmk (50 μM).

The viability is a read-out of living cells in per cent, often relative to untreated cells. A word on the melting point: it is the temperature of the solid-liquid transition. One may read the GI50 as the concentration that inhibits growth by half. A low value points to more potent growth inhibition. The IC50 is the concentration at which inhibition is half-maximal.

In turn, `Cc1nn(C)c(COc2ccc(N3CCN(S(=O)(=O)N(C)C)CC3)cc2)c1-c1cccc2c(CCCOc3cccc4ccccc34)c(C(=O)O)n(CCN3CCOCC3)c12` [Compound A-1210477, reference compound] showed a viability at 20 µM in data set [1] of 73 ± 3.6%. Further, in [2] (K562, 24 h, A-1210477 10 μM), the “AnnV+/PI+ (%)” value is listed as 4.73 ± 0.17%, the “AnnV+/PI− (%)” value was determined as 9.31 ± 1.78% and the “Combined cell death (%)” value came out at 14.04 ± 3.24%. Besides, in data set [2] (setting [10]), the “AnnV+/PI+ (%)” value stood at 2.81 ± 0.21%, the “AnnV+/PI− (%)” value amounted to 6.04 ± 0.99% and the “Combined cell death (%)” value worked out at 8.85 ± 2.28%. The viability at 10 µM in [3] (Homo sapiens, K562, A-1210477 10 µM, 24 h) was 79.3 ± 1.5%. In addition, the apoptotic cell death entry in data set [4] was “about 14.5%”.

Take `COc1ccc2c(c1)c(C(=O)C(=O)NNC(=O)CC#N)cn2Cc1ccc(Cl)cc1Cl` [EE-92, N′-(2-Cyanoacetyl)-2-(1-(2,4-Dichlorobenzyl)-5-Methoxy-1H-Indol-3-yl)-2-Oxoacetohydrazide]: the melting point is 242 to 244 °C. In addition, in data set [5], the “overall growth of K562 cells” value is recorded as “only weakly affected”. Also, in data set [3], the “viability of K562 cells” value is reported as “only weakly affected”.

On to `N#CCC(=O)NNC(=O)C(=O)c1cn(Cc2ccccc2)c2ccccc12` [EE-31, 2-(1-Benzyl-1H-Indol-3-yl)-N′-(2-Cyanoacetyl)-2-Oxoacetohydrazide], for which the melting point lay within 264 to 266 °C. In [5], the “overall growth of K562 cells” value is recorded as “only weakly affected”. Further, the “viability of K562 cells” value in data set [3] was “only weakly affected”.

As to `COc1ccc2c(c1)c(C(=O)C(=O)NNC(=O)CC#N)cn2Cc1ccccc1` [EE-80, 2-(1-Benzyl-5-Methoxy-1H-Indol-3-yl)-N′-(2-Cyanoacetyl)-2-Oxoacetohydrazide], the melting point is 199 to 201 °C. The “overall growth of K562 cells” value in [5] is given as “only weakly affected”. In [3], the “viability of K562 cells” value is listed as “only weakly affected”.

Regarding `Cc1ccc(NC(=O)c2ccc(CN3CCN(C)CC3)cc2)cc1Nc1nccc(-c2cccnc2)n1` [Ima, Imatinib, reference compound], in [2] (K562, 24 h, Ima 1 μM), the “AnnV+/PI+ (%)” value amounted to 6.97 ± 0.88%, the “AnnV+/PI− (%)” value amounted to 37.77 ± 4.07% and the “Combined cell death (%)” value is listed as 44.74 ± 21.78%. In addition, in data set [2] (setting [11]), the “AnnV+/PI+ (%)” value is 2.93 ± 0.15%, the “AnnV+/PI− (%)” value is on record as 10.86 ± 3.57% and the “Combined cell death (%)” value is recorded as 13.79 ± 5.60%. In addition, in data set [2] (K562, Ima 1 μM (Figure 3B)), the “AnnV+/PI+ (%)” value was determined as 31.27 ± 5.24%, the “AnnV+/PI− (%)” value is 51.77 ± 2.29% and the “Combined cell death (%)” value came to 83.03 ± 14.50%.

As to “(Z)-5-((1H-Indol-3-yl)Methylene)-1,3-Dimethylimidazolidine-2,4-Dione [EE-115]”, the “growth (relative body length) of zebrafish” value in data set [6] (concentrations up to 100 µM) is given as “did not affect”. In addition, in [6] (concentrations up to 100 µM), the “survival rate of zebrafish” value was “did not affect”. In data set [6] (embryos 24 hpf, different concentrations), the “morphological changes of zebrafish” value is given as “No significant morphological changes”. The “overall growth of K562 cells” value in [5] is given as “only weakly affected”. Besides, the GI50 in data set [7] (RPMI 1788, 24 h) is greater than 50 µM; in data set [7] (RPMI 1788, 48 h), 30.4 ± 1.95 µM; in data set [7] (RPMI 1788, 72 h) it was 27.7 ± 2.3 µM. Also, the “viability of K562 cells” value in data set [3] is “only weakly affected”. Moreover, the IC50 was greater than 50 µM in data set [8] (RPMI 1788, 24 h); greater than 50 µM in data set [8] (RPMI 1788, 48 h); greater than 50 µM in data set [8] (RPMI 1788, 72 h). In addition, the “viability of RPMI 1788 cells” value in data set [8] (up to 50 µM, Figure S4B) is “reduced the viability”.

Regarding `Cc1ccc(-c2cc(C(F)(F)F)nn2-c2ccc(S(N)(=O)=O)cc2)cc1` [Celecoxib, reference compound], in [9] (K562, 48 h), the “G1 cell cycle phase” value is 64.77 ± 3.09%, the “G2/M cell cycle phase” value was 17.44 ± 2.13%, the “S cell cycle phase” value is recorded as 15.00 ± 0.93% and the “Sub-G1 cell cycle phase” value came to 2.79 ±1.90%. For the same compound, in [9] (K562, 72 h), the “G1 cell cycle phase” value is 68.43 ± 4.67%, the “G2/M cell cycle phase” value stood at 16.96 ± 3.04%, the “S cell cycle phase” value is listed as 11.20 ± 2.37% and the “Sub-G1 cell cycle phase” value turned out to be 3.41 ± 2.04%.
